{
  "source": "patent US9435811B2",
  "about": "“Inducer of chondrocyte proliferation and differentiation” (ORIENTAL YEAST CO., LTD, priority 2008, dated 2016)",
  "key": {"ATDC5 cells [1]": {"tested_on": "ATDC5 cells", "assay": "Induction of differentiation of ATDC5 cells by peptide D, alcian blue staining", "assay_type": "cell-based, mouse", "conditions": "peptide D 25 μM and 100 μM, 14 days", "method": "The culture cells (ATDC5) derived from a mouse chondrogenic EC (embryonal carcinoma) cell was provided by Professor Hiraki and Associate Professor Shukunami in the Institute for Frontier Medical Sciences, Kyoto University. DMEM/F-12 medium (Cellgro) containing 5% FBS (Nichirei) was used as a maintenance medium.\nATDC5 cells were seeded at 2×10^4 cells/well in a 48-well plate (IWAKI). The culture supernatant was removed 24 hours later, and DMEM/F-12 medium containing 10 ng/ml insulin (Roche) and transferrin (Roche) were added. The medium was replaced with fresh medium every 3 or 4 days.\nSimultaneously, peptide D was added at 25 μM and 100 μM. One ng/ml and 5 ng/ml BMP-4 (R&D) were added as positive control. In order to examine the synergistic effects of peptide D and BMP-4, further, 25 μM peptide D and 1 ng/ml BMP-4 were added. After 14 days, these cells were fixed in 10% neutral buffered formalin. After fixation, the cells were stained with an alcian blue solution for 4 hours, and the culture plate was photographed."}, "[2]": {"tested_on": "human mesenchymal stem cells", "assay": "Induction of human mesenchymal stem cell differentiation, alcian blue staining", "assay_type": "cell-based", "conditions": "100 μM peptide D, 14 days", "method": "Human mesenchymal stem cells were seeded at 5×10^4 cells/well in 48-well plate (IWAKI). The culture supernatant was removed 24 hours later, the medium was replaced with a chondrocyte differentiation induction medium (Lonza), and the medium was replaced with fresh medium every 3 or 4 days. Simultaneously, peptide D was added at 100 μM (the group to which peptide D was administered). Further, a group cultured with 100 μM peptide D and 1 ng/ml BMP-4 (R&D) was examined. BMP-4 was added at 1 ng/ml as a positive control group. After 14 days, these cells were fixed in 10% neutral buffered formalin. After fixation, the cells were stained with an alcian blue solution for 4 hours, and the culture plate was photographed. Moreover the pigment was eluted using a 6M guanidinium hydrochloride solution from the culture plate. The eluate (100 μl) was moved to a new 96-well plate, and measured the absorbance at 620 nm by microplate reader (BMG Labtech)."}, "[3]": {"tested_on": "human mesenchymal stem cells", "assay": "GeneChip analysis using human mesenchymal stem cells", "assay_type": "cell-based", "conditions": "for aggrecan expression level: 10 ng/ml TGF-β3; for expression levels of Sox9 compared with the control group: 24 hours and 96 hours after the addition", "method": "Human mesenchymal stem cells were seeded in a 6-well plate (Nunc) at 1×10^5 cells/well, the culture supernatant was discarded 96 hours later, and 2 ml of a cartilage differentiation induction medium was added. The control group, the 40 μM peptide D group, the 10 ng/ml TGF-β3 group, and the 40 μM peptide D+10 ng/ml TGFβ3 group were prepared. Each culture medium was replaced 24 hours after the stimulation. The cells were dissolved in 1 ml of TRIZOL (Invitrogen) 96 hours after the stimulation, and RNA was isolated. The isolated RNA was used for GeneChip analysis (Affimetrix, Kurabo)."}, "ATDC5 cells [4]": {"tested_on": "ATDC5 cells", "assay": "GeneChip analysis using ATDC5 cells", "assay_type": "cell-based, mouse", "conditions": "100 μM peptide D, signal ratio to control group", "method": "The peptide described in Example 1 was used. The ATDC5 cells described in Example 2 were used as cultured cells. The ATDC5 cells were seeded in a 6-cm dish (IWAKI) at 1×10^5 cells/well. The culture supernatant was removed 72 hours later, and DMEM/F-12 medium containing 10 ng/ml insulin (Roche) and 10 ng/ml transferrin (Roche) was added. The medium was replaced with fresh medium every 3 or 4 days.\nSimultaneously, peptide D was added at 100 μM. The medium was removed 4 days and 7 days after the induction of differentiation. The cells were washed with PBS, and RNA of these cells was obtained using the Absolutely RNA Miniprep Kit (Stratagene) 7 days after the induction of differentiation. The extracted RNA was subjected to GeneChip analysis (Affimetrix, Kurabo)."}, "ATDC5 cells [5]": {"tested_on": "ATDC5 cells", "assay": "RT-PCR analysis of chondrocytic factors in ATDC5 cells", "assay_type": "cell-based, mouse", "conditions": "200 μM peptide D", "method": "Mouse prechondrocytes, ATDC5 cells (5×10^4 cells) were seeded in a 6-cm dish (IWAKI) and cultured in the presence of a cartilage differentiation induction medium containing 10 ng/ml insulin and transferrin for 7 days and for 14 days. The peptide D group was added at 200 μM peptide D, and 5 ng/ml of BMP-4 was added to the positive control group. The cells were washed with PBS after culture, the cells were dissolved in 1 ml TRIZOL […], and the solution was obtained. After 5 min at room temperature, 0.2 ml of chloroform (Wako) was added, followed by vigorous inversion mixing and centrifugation at 4° C. and 12,000×g for 15 minutes. The supernatant was collected in a new tube, and was added to 0.5 ml of isopropanol (Nacalai), followed by inversion mixing. The resultant was left at room temperature for 10 minutes and centrifuged at 4° C. and 12,000×g for 10 minutes. The supernatant was discarded, and the resultant was added to 70% ethanol. After dry-up, RNA was dissolved in 87.5 μl of DEPC water, 10 μl of RDD buffer and 2.5 μl of DNase, and the mixture was allowed to stand at room temperature for 10 minutes. The RNA sample was cleaned by the RNeasy MinElute Cleanup Kit (Qiagen), and the concentration of the obtained RNA was measured using NanoDrop. The obtained RNA (250 ng) was electrophoresed on 1% agarose gel, checked degradation of RNA, and undegradated RNA samples (250 ng each) were used in RT-PCR. RT-PCR was carried out using the ThermoScript RT-PCR System (Invitrogen) and random primers.\nAfter cDNA was synthesized, PCR was carried out using primers specific for the α1 chains of mouse type II collagen (mCol 2α1), mouse type X collagen (mCol X), and mouse aggrecan (mAggrecan). PCR was carried out using mouse GAPDH-specific primers for standardization. The sequences of PCR primers used are shown below. […]\nThe sample obtained after PCR was electrophoresed on 2% agarose gel, and a specific band was detected by UV with the use of ethidium bromide staining (FIG. 3A and FIG. 4A). The obtained image was analyzed using the CSAnalyzer (ATTO)."}, "RANKL": {"target": "T1, RANKL (Homo sapiens, UniProt O14788)", "T1 sequence (O14788 140-317 limits assumed)": "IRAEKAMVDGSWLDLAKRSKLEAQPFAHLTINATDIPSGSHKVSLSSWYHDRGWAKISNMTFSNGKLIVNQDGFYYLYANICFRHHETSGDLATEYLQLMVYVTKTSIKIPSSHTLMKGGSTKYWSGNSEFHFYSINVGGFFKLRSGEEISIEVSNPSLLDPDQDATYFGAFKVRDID", "conditions": "Aoki et al., J. Clin. Invest., 116: 1525, 2006; cited from earlier work"}, "[6]": {"tested_on": "human mesenchymal stem cells", "assay": "Three-dimensional culture using human mesenchymal stem cells", "assay_type": "cell-based", "method": "Chondrocytes are three-dimensionally cultured induce […]. Three dimensional culture system relatively reflected the natural conditions. Human mesenchymal stem cells were seeded at 2.5×10^5 cells in 15-ml tubes (TPP) and the cells were collected by centrifuged at 1,000 rpm and room temperature for 4 minutes. The supernatant was removed and the medium was replaced with 0.5 ml chondrocyte differentiation induction medium (Lonza) with 10 ng/ml TGF-β3 (R&D). The medium was replaced with fresh medium every 3 or 4 days. Simultaneously, peptide D was added at 50 μM and at 150 μM (i.e., a low-dose peptide D group and a high-dose peptide D group). After 14 days, the cells were fixed in 4% PFA (Wako), photographed under a microscope (FIG. 8). A pellet was embedded in paraffin, and the sample slide was prepared, followed by alcian blue staining and safranin 0 staining (FIG. 9).\n2.5×10^5 human mesenchymal stem cells were cultured in the presence of 40 μM peptide D and 10 ng/ml TGF-β3 with cartilage differentiation induction medium for 21 days. After the pellets were fixed in 4% PFA, the pellet was photographed under a microscope (FIG. 10). After the pellet had been embedded in paraffin, the sample slide was prepared and stained with alcian blue and safranin 0 (FIG. 11).\nAfter the pellets were fixed in 4% PFA, the pellet was photographed under a microscope (FIG. 12). After the pellet had been embedded in paraffin, the sample slide was prepared and stained with alcian blue and safranin O (FIG. 13)."}, "[7]": {"conditions": "24 hours after the addition, 40 μM peptide D"}, "[8]": {"conditions": "96 hours after the addition, 40 μM peptide D"}, "[9]": {"conditions": "peptide D 50 μM and 150 μM, medium with 10 ng/ml TGF-β3, 14 days"}},
  "note": "Positions of bridges follow the written chain, without caps; N, C: chain ends. No end group written: not given here.",
  "data": [
    {"molecule": "peptide D: cyclic peptide of 9 amino acid residues, SEQ ID NO: 7, two cysteine residues bound by a disulfide bond; binds to RANKL (YCWSQYLCY; disulfide 2-8 (inferred))", "values": [
      {"measurement": "number of alcian blue positive nodules", "setting": "ATDC5 cells [1]", "result": "increased in a dose dependent manner"},
      {"measurement": "absorbance of the eluate at 620 nm (alcian blue pigment) versus control group", "setting": "[2]", "result": "significant increase"},
      {"measurement": "alcian blue positive cells compared with control", "setting": "[2]; chondrocyte differentiation induction medium", "result": "increased"},
      {"measurement": "IGF2R and versican expression", "setting": "[3]; 40 μM peptide D, 24 hours later", "result": "elevated"},
      {"measurement": "IGF-1, LTBP2, and TGFβ1 expression levels", "setting": "[3]; 40 μM peptide D, 96 hours later", "result": "elevated"},
      {"measurement": "aggrecan expression level", "setting": "[3]; [7]", "result": "elevated"},
      {"measurement": "expression levels of Sox9 compared with the control group", "setting": "[3]", "result": "elevated"},
      {"measurement": "aggrecan expression level", "setting": "[3]; [8]", "result": "elevated expression level was maintained"},
      {"measurement": "expression level of BMP-7", "setting": "ATDC5 cells [4]", "result": "increased"},
      {"measurement": "expression levels of CTGF, PDGF, TGFβ1, fibromodulin and receptors (PDGFR1, FGFR2)", "setting": "ATDC5 cells [4]", "result": "increased"},
      {"measurement": "expression levels of the α chains of type II, IX, and XI collagens", "setting": "ATDC5 cells [4]", "result": "increased"},
      {"measurement": "expression of asporin, IGFbp2, IGFbp6, and ADAMTS5", "setting": "ATDC5 cells [4]", "result": "inhibited"},
      {"measurement": "aggrecan expression level", "setting": "ATDC5 cells [5]; day 7, standardized with GAPDH", "result": "increased"},
      {"measurement": "expression level of the α chain of type II collagen compared with the control", "setting": "ATDC5 cells [5]; day 7, standardized with GAPDH", "result": "significantly increased"},
      {"measurement": "expression level of type X collagen", "setting": "ATDC5 cells [5]; day 14, standardized with GAPDH", "result": "particularly increased"},
      {"measurement": "binding to RANKL", "setting": "RANKL", "result": "binds to RANKL"},
      {"measurement": "alcian blue or safranin O staining of 3-dimensional pellets", "setting": "[6]; [9]", "result": "positive stained"},
      {"measurement": "pellet size", "setting": "[6]; [9]", "result": "increased the pellet size in a dose dependent manner"}
    ]},
    {"molecule": "TGF-β3: TGF-β3 (R&D), protein belonging to the TGF-β superfamily (protein, UniProt P10600 301-412, looked up) Transforming growth factor …: ALDTNYCFRNLEENCCVRPLYIDFRQDLGWKWVHEPKGYYANFCSGPCPYLRSADTTHSTVLGLYNTLNPEASASPCCVPQDLEPLTILYYVGRTPKVEQLSNMVVKSCKCS", "values": [
      {"measurement": "aggrecan expression level", "setting": "[3]; [7]", "result": "equivalent to that of the control group"},
      {"measurement": "expression levels of Sox9 compared with the control group", "setting": "[3]", "result": "elevated"},
      {"measurement": "aggrecan expression level", "setting": "[3]; [8]", "result": "lower than that of the control group"},
      {"measurement": "pellet size", "setting": "[6]; 21 days, 40 μM peptide D, 10 ng/ml TGF-β3, 100 ng/ml BMP-2", "result": "did not change"}
    ]}
  ]
}
